Key:
Type in all cases: functional
OVCAR-3 = experiment: Growth inhibition of human OVCAR-3 cells
NCI-H460 = experiment: Growth inhibition of human NCI-H460 cells
MC-38 = experiment: Growth inhibition of mouse C38 cells assessed as zone units at 50 ug/disk by disk diffusion agar colony formation assay
U-251 = experiment: Growth inhibition of human U251 cells
KM12 = experiment: Growth inhibition of human KM12 cells
SN12C = experiment: Growth inhibition of human SN12C cells
RXF 393 = experiment: Growth inhibition of human […] cells
OVCAR-4 = experiment: Growth inhibition of human OVCAR4 cells
T47D = experiment: Growth inhibition of human T47D cells
M14 = experiment: Growth inhibition of human M14 cells
SNB-19 = experiment: Growth inhibition of human SNB19 cells
HOP-92 = experiment: Growth inhibition of human HOP92 cells
HT-29 = experiment: Growth inhibition of human HT-29 cells
HOP-62 = experiment: Growth inhibition of human HOP62 cells
HCT-15 = experiment: Growth inhibition of human HCT15 cells
SNB-75 = experiment: Growth inhibition of human SNB75 cells
SK-MEL-5 = experiment: Growth inhibition of human SK-MEL-5 cells
BT-549 = experiment: Growth inhibition of human BT549 cells
MCF7 = experiment: Growth inhibition of human MCF7 cells
PO3 = experiment: Growth inhibition of mouse PO3 cells assessed as zone units at 50 ug/disk by disk diffusion agar colony formation assay
UO-31 = experiment: Growth inhibition of human UO31 cells
SW-620 = experiment: Growth inhibition of human SW620 cells
NCI-H322M = experiment: Growth inhibition of human NCI-H322M cells
LOX IMVI = experiment: Growth inhibition of human LOXIMVI cells
A498 = experiment: Growth inhibition of human A498 cells
COLO 205 = experiment: Growth inhibition of human COLO205 cells
OVCAR-8 = experiment: Growth inhibition of human OVCAR8 cells
HCT-116 = experiment: Growth inhibition of human HCT116 cells
A549 = experiment: Growth inhibition of human A549 cells
SK-MEL-2 = experiment: Growth inhibition of human SK-MEL-2 cells
SF-268 = experiment: Growth inhibition of human SF268 cells
[1] = Growth inhibition of human MCF7/ADR resistant cells; conditions: NCI/ADR-RES
786-0 = experiment: Growth inhibition of human 786-0 cells
PC-3 = experiment: Growth inhibition of human PC3 cells
NCI-H226 = experiment: Growth inhibition of human NCI-H226 cells
ACHN = experiment: Growth inhibition of human ACHN cells
OVCAR-5 = experiment: Growth inhibition of human OVCAR5 cells
UACC-257 = experiment: Growth inhibition of human UACC257 cells
HCC 2998 = experiment: Growth inhibition of human HCC2998 cells
TK-10 = experiment: Growth inhibition of human TK10 cells
MDA-MB-231 = experiment: Growth inhibition of human MDA-MB-231 cells
CX-1 = experiment: Growth inhibition of human CX-1 cells assessed as zone units at 50 ug/disk by disk diffusion agar colony formation assay
EKVX = experiment: Growth inhibition of human EKVX cells
MOLT-4 = experiment: Growth inhibition of human MOLT4 cells
MDA-N = experiment: Growth inhibition of human MDA-N cells
[2] = Growth inhibition of mouse M17/ADR cells assessed as zone units at 50 ug/disk by disk diffusion agar colony formation assay
SK-MEL-28 = experiment: Growth inhibition of human SK-MEL-28 cells
[3] = Growth inhibition of human H116 cells assessed as zone units at 50 ug/disk by disk diffusion agar colony formation assay
SK-OV-3 = experiment: Growth inhibition of human SKOV3 cells
HL-60(TB) = experiment: Growth inhibition of human HL-60(TB) cells
SF-295 = experiment: Growth inhibition of human SF295 cells
MDA-MB-435 = experiment: Growth inhibition of human MDA-MB-435 cells
IGROV-1 = experiment: Growth inhibition of human IGROV1 cells
NCI-H23 = experiment: Growth inhibition of human NCI-H23 cells
P388 = experiment: Growth inhibition of mouse P388 cells assessed as zone units at 50 ug/disk by disk diffusion agar colony formation assay
L1210 = experiment: Growth inhibition of mouse L1210 cells assessed as zone units at 50 ug/disk by disk diffusion agar colony formation assay
CAKI-1 = experiment: Growth inhibition of human Caki1 cells
SF-539 = experiment: Growth inhibition of human SF539 cells

Compound: CC1=C(CC/C(C)=C/CC[C@@]2(C)CC[C@H]([C@H](C)C(=O)O)OO2)C(C)(C)CCC1
- GI50 (OVCAR-3): > 5 µM
- GI50 (NCI-H460): > 5 µM
- Activity (MC-38): 60 Zone units
- GI50 (U-251): > 5 µM
- GI50 (KM12): > 5 µM
- GI50 (SN12C): > 5 µM
- GI50 (RXF 393): > 5 µM
- GI50 (OVCAR-4): > 5 µM
- GI50 (T47D): > 5 µM
- GI50 (M14): > 5 µM
- GI50 (SNB-19): > 5 µM
- GI50 (HOP-92): > 5 µM
- GI50 (HT-29): > 5 µM
- GI50 (HOP-62): > 5 µM
- GI50 (HCT-15): > 5 µM
- GI50 (SNB-75): > 5 µM
- GI50 (SK-MEL-5): > 5 µM
- GI50 (BT-549): > 5 µM
- GI50 (MCF7): > 5 µM
- Activity (PO3): 40 Zone units
- GI50 (UO-31): > 5 µM
- GI50 (SW-620): > 5 µM
- GI50 (NCI-H322M): > 5 µM
- GI50 (LOX IMVI): 2.17 µM
- GI50 (A498): > 5 µM
- GI50 (COLO 205): > 5 µM
- GI50 (OVCAR-8): > 5 µM
- GI50 (HCT-116): > 5 µM
- GI50 (A549): > 5 µM
- GI50 (SK-MEL-2): > 5 µM
- GI50 (SF-268): > 5 µM
- GI50 [1]: > 5 µM
- GI50 (786-0): > 5 µM
- GI50 (PC-3): > 5 µM
- GI50 (NCI-H226): > 5 µM
- GI50 (ACHN): > 5 µM
- GI50 (OVCAR-5): > 5 µM
- GI50 (UACC-257): > 5 µM
- GI50 (HCC 2998): > 5 µM
- GI50 (TK-10): > 5 µM
- GI50 (MDA-MB-231): > 5 µM
- Activity (CX-1): 100 Zone units
- GI50 (EKVX): > 5 µM
- GI50 (MOLT-4): > 5 µM
- GI50 (MDA-N): > 5 µM
- Activity [2]: 80 Zone units
- GI50 (SK-MEL-28): 0.43 µM
- Activity [3]: 80 Zone units
- GI50 (SK-OV-3): > 5 µM
- GI50 (HL-60(TB)): 1.77 µM
- GI50 (SF-295): > 5 µM
- GI50 (MDA-MB-435): > 5 µM
- GI50 (IGROV-1): 1.11 µM
- GI50 (NCI-H23): > 5 µM
- Activity (P388): 110 Zone units
- Activity (L1210): 110 Zone units
- GI50 (CAKI-1): > 5 µM
- GI50 (SF-539): > 5 µM
